Measurements as given in ChEMBL document CHEMBL1157315, “Saponins from Polygala japonica and their effects on a forced swimming test in mice” (2006).

How the values were obtained:
Mus musculus [1] = test: Antidepressant activity in ICR mouse assessed as reduction in immobility time of forced swimming at 10 mg/kg, po administered once daily for 5 days by forced swimming test relative to control; assay type: functional; parameters: scale not given: the % may be the effect or the level left
Mus musculus [2] = test: Antidepressant activity in ICR mouse assessed as reduction in immobility time of forced swimming at 100 mg/kg, po administered once daily for 5 days by forced swimming test relative to control; assay type: functional; parameters: scale not given: the % may be the effect or the level left

Compound | Activity (Mus musculus [1]) [%] | Activity (Mus musculus [2]) [%]
C[C@@H]1O[C@@H](O[C@H]2[C@H](OC(=O)[C@]34CCC(C)(C)C[C@H]3C3=CC[C@@H]5[C@@]6(C)C[C@H](O)[C@H](O)[C@@](C)(C(=O)O)[C@@H]6CC[C@@]5(C)[C@]3(C)CC4)O[C@H](CO)[C@@H](O)[C@@H]2O)[C@H](O)[C@H](O)[C@H]1O[C@@H]1OC[C@@H](O)[C@H](O)[C@H]1O [POLYGALASAPONIN E] | 35.4 | 58.1
CNCCC(Oc1ccc(C(F)(F)F)cc1)c1ccccc1 (configuration not stated) [FLUOXETINE] | 50.7 | 
C[C@@H]1O[C@@H](O[C@H]2[C@H](OC(=O)[C@]34CCC(C)(C)C[C@H]3C3=CC[C@@H]5[C@@]6(C)C[C@H](O)[C@H](O)[C@@](C)(C(=O)O)[C@@H]6CC[C@@]5(C)[C@]3(C)CC4)O[C@H](CO)[C@@H](O)[C@@H]2O)[C@H](O)[C@H](O[C@H]2OC[C@@](O)(CO)[C@@H]2O)[C@H]1O[C@@H]1OC[C@@H](O)[C@H](O)[C@H]1O [POLYGALASAPONIN H] | 45.8 | 51.3
C[C@@H]1O[C@@H](O[C@H]2[C@H](OC(=O)[C@]34CCC(C)(C)C[C@H]3C3=CC[C@@H]5[C@@]6(C)C[C@H](O)[C@H](O[C@@H]7O[C@H](CO)[C@@H](O)[C@H](O)[C@H]7O)[C@](C)(CO)[C@@H]6CC[C@@]5(C)[C@]3(C)CC4)O[C@H](CO)[C@@H](O[C@@H]3OC[C@@H](O)[C@H](O)[C@H]3O)[C@@H]2O[C@@H]2OC[C@](O)(CO)[C@H]2O)[C@H](O)[C@H](O)[C@H]1O [POLYGALASAPONIN V] | 16.8 | 16.6
